The source of these data is paper PMC6604316 (Virology Journal, 2019).

Where two headings read alike, the source gives them in different places.

What is called IC50 is the concentration needed to halve the response being measured.

In test [1] the target is NA of A/Texas/12/2007 (H3N2 119E) (Influenza A virus (A/Texas/12/2007(H3N2)), UniProt D1FVK3). Put plainly: biochemical. The test is classed as biochemical.
For test [2], the system named is NA protein of LPAI H7N9 virus, 292 K. The conditions noted are these: cited from earlier work.

On to oseltamivir carboxylate, for which the half-maximal inhibitory concentration (IC50) in test [1] (read-out: Mean IC50 (nM) ± SD) worked out at 0.12 ± 0.01 nM. Also, the “fold increase in the IC50” value in test [2] is recorded as “more than 1000 fold”.

Regarding `CC(=O)N[C@H]1[C@H]([C@H](O)[C@H](O)CO)OC(C(=O)O)=C[C@@H]1N=C(N)N` [Zanamivir, zanamivir], the IC50 in test [1] turned out to be 1.71 ± 0.63 nM. In addition, the “fold increase in the IC50” value in test [2] is 67 fold.
